Laboratory results: patent US8609620B2, “Neuregulin peptides and their use” (Zensun (Shanghai) Science & Technology Ltd., priority 2008, dated 2013)

Tests used:
[1] = test system: AKT phosphorylation in cardiomyocytes; experiment: Effect of neuregulin peptides on the phosphorylation of AKT in cardiomyocytes (western blot); type: cell-based, rat; settings: cardiac cells from left ventricles of neonatal rats, different concentrations, 20 minutes, FIG. 1
Protocol: To study the effect of synthesized peptides on ErbB2 and ErbB4 signaling in cardiomyocytes, cardiac cells extracted from left ventricles of neonatal rats were used.
Cardiac cells were grown in media with serum for 2 days. After the cells reached about 80% confluence, the media was changed to serum free media. After another 24 hours, different amounts of synthesized neuregulin peptides or neuregulin were added into separate wells containing the cells for 20 minutes. The media was then aspirated and gel loading buffer was added to lyse the cells. The sample was then harvested and loaded into a separate well of gel for electrophoresis and western blot analysis.

ErbB2 receptor = molecular target: T1, ErbB2 receptor (Homo sapiens, UniProt P04626+P21860); experiment: Receptor binding: neuregulin-induced ErbB2 phosphorylation in MCF-7 cells (ErbB2 antibody H4 capture, anti-phosphotyrosine ELISA); type: cell-based; settings: 20 min at 37° C., concentration achieving 50% of maximum OD value at 450 nm
T1 construct: endogenous in cells; host or cells: MCF-7
Source text: Briefly, the assay measures neuregulin induced ErbB2 activation and phosphorylation on the adherent breast carcinoma cell line, MCF-7. Membrane proteins are solubilized via Triton X-100 lysis and the receptor is captured in ELISA wells coated with ErbB2-specific antibodies (e.g., H4) with no cross-reaction to ErbB3 or ErbB4. The degree of receptor phosphorylation is then quantified by antiphosphotyrosine ELISA.
MCF-7 cells was harvested, counted, pelleted and resuspended into DMEM (with 10% serum and 9 μg/ml insulin) at 5×10^4 cells/ml. 100 μl cell suspension was added to each well of 96 well plate and the plate was incubated at 37° C. overnight. The cells were then washed 3 times with PBS and grew in serum free DMEM for another 24 hours.
ErbB2 antibody H4 (Zensun, anti-ErbB2 monoclonal antibody) was diluted to 6 μg/ml by coating buffer (50 mM Na2CO3—NaHCO3, pH9.6), and added to 96 well plate 50 μl/well. The plate was left at 4° C. overnight to coat with antibody.
DMEM was added to two wells as blank. The plate was incubated at 37° C. for 20 min. The cells were washed once with PBS before adding 100 μl/well lysis buffer (50 mM Hepes, pH 8.0, 150 mM NaCl, 2 mM sodium orthovanadate, 0.01% thimerosal, 1% Triton X-100 and one protease inhibitor cocktail tablet per 25 ml solution) and lysing at 4° C. for 30 min. […]

EC50 (ErbB2 receptor)	Molecule	effect on AKT phosphorylation compared with NRG [1]
–	CSCC[C@@H]1NC(=O)[C@H](Cc2ccccc2)NC(=O)[C@@H]2CSSC[C@H](NC(=O)[C@H](CCCCN)NC(=O)[C@@H](NC(=O)[C@H](CC(C)C)NC(=O)[C@H](Cc3c[nH]cn3)NC(=O)[C@@H](N)CO)C(C)C)C(=O)N[C@@H](C)C(=O)N[C@@H](CCC(=O)O)C(=O)N[C@@H](CCCCN)C(=O)N[C@@H](CCC(=O)O)C(=O)N[C@@H](CCCCN)C(=O)N[C@@H]([C@@H](C)O)C(=O)N[C@@H](Cc3ccccc3)C(=O)N[C@@H](CSSC[C@@H](C(=O)N[C@@H](CCCCN)C(=O)N[C@H]3CSSC[C@@H](C(=O)N[C@@H](CCC(N)=O)C(=O)N[C@@H](CC(N)=O)C(=O)N[C@@H](Cc4ccc(O)cc4)C(=O)N[C@H](C(=O)N[C@@H](CCSC)C(=O)N[C@@H](C)C(=O)N[C@@H](CO)C(=O)N[C@@H](Cc4ccccc4)C(=O)N[C@@H](Cc4ccc(O)cc4)C(=O)N[C@@H](CCCCN)C(=O)O)C(C)C)NC(=O)[C@H](CCCNC(=N)N)NC(=O)[C@H](CC(=O)O)NC(=O)CNC(=O)[C@H]([C@@H](C)O)NC(=O)[C@H](Cc4ccccc4)NC(=O)[C@H](CCC(=O)O)NC(=O)[C@H](CC(N)=O)NC(=O)[C@@H]4CCCN4C3=O)NC(=O)[C@H](CC(C)C)NC(=O)[C@H](Cc3ccc(O)cc3)NC(=O)[C@H](CCCNC(=N)N)NC(=O)[C@H](CO)NC(=O)[C@@H]3CCCN3C(=O)[C@H](CC(N)=O)NC(=O)[C@H](CO)NC(=O)[C@H](CC(C)C)NC(=O)[C@H](CC(=O)O)NC(=O)[C@H](CCCCN)NC(=O)[C@H](C(C)C)NC1=O)C(=O)N[C@@H](C(C)C)C(=O)N[C@@H](CC(N)=O)C(=O)NCC(=O)NCC(=O)N[C@@H](CCC(=O)O)C(=O)N2 [NRG55]	much stronger effect than NRG
–	CSCC[C@@H]1NC(=O)[C@H](Cc2ccccc2)NC(=O)[C@@H]2CSSC[C@H](NC(=O)[C@H](CCCCN)NC(=O)[C@@H](NC(=O)[C@H](CC(C)C)NC(=O)[C@H](Cc3c[nH]cn3)NC(=O)[C@@H](N)CO)C(C)C)C(=O)N[C@@H](C)C(=O)N[C@@H](CCC(=O)O)C(=O)N[C@@H](CCCCN)C(=O)N[C@@H](CCC(=O)O)C(=O)N[C@@H](CCCCN)C(=O)N[C@@H]([C@@H](C)O)C(=O)N[C@@H](Cc3ccccc3)C(=O)N[C@@H](CSSC[C@@H](C(=O)N[C@@H](CCCCN)C(=O)N[C@H]3CSSC[C@@H](C(=O)N[C@@H](CCC(N)=O)C(=O)N[C@@H](CC(N)=O)C(=O)N[C@@H](Cc4ccc(O)cc4)C(=O)N[C@H](C(=O)N[C@@H](CCSC)C(=O)N[C@@H](C)C(=O)N[C@@H](CO)C(=O)N[C@@H](Cc4ccccc4)C(=O)N[C@@H](Cc4ccc(O)cc4)C(=O)N[C@@H](CCCCN)C(=O)N[C@@H](C)C(=O)N[C@@H](CCC(=O)O)C(=O)O)C(C)C)NC(=O)[C@H](CCCNC(=N)N)NC(=O)[C@H](CC(=O)O)NC(=O)CNC(=O)[C@H]([C@@H](C)O)NC(=O)[C@H](Cc4ccccc4)NC(=O)[C@H](CCC(=O)O)NC(=O)[C@H](CC(N)=O)NC(=O)[C@@H]4CCCN4C3=O)NC(=O)[C@H](CC(C)C)NC(=O)[C@H](Cc3ccc(O)cc3)NC(=O)[C@H](CCCNC(=N)N)NC(=O)[C@H](CO)NC(=O)[C@@H]3CCCN3C(=O)[C@H](CC(N)=O)NC(=O)[C@H](CO)NC(=O)[C@H](CC(C)C)NC(=O)[C@H](CC(=O)O)NC(=O)[C@H](CCCCN)NC(=O)[C@H](C(C)C)NC1=O)C(=O)N[C@@H](C(C)C)C(=O)N[C@@H](CC(N)=O)C(=O)NCC(=O)NCC(=O)N[C@@H](CCC(=O)O)C(=O)N2 [NRG57]	almost have the same effect as NRG
–	CSCC[C@@H]1NC(=O)[C@H](Cc2ccccc2)NC(=O)[C@@H]2CSSC[C@H](NC(=O)[C@H](CCCCN)NC(=O)[C@@H](NC(=O)[C@H](CC(C)C)NC(=O)[C@H](Cc3c[nH]cn3)NC(=O)[C@@H](N)CO)C(C)C)C(=O)N[C@@H](C)C(=O)N[C@@H](CCC(=O)O)C(=O)N[C@@H](CCCCN)C(=O)N[C@@H](CCC(=O)O)C(=O)N[C@@H](CCCCN)C(=O)N[C@@H]([C@@H](C)O)C(=O)N[C@@H](Cc3ccccc3)C(=O)N[C@@H](CSSC[C@@H](C(=O)N[C@@H](CCCCN)C(=O)N[C@H]3CSSC[C@@H](C(=O)N[C@@H](CCC(N)=O)C(=O)N[C@@H](CC(N)=O)C(=O)N[C@@H](Cc4ccc(O)cc4)C(=O)N[C@H](C(=O)N[C@@H](CCSC)C(=O)N[C@@H](C)C(=O)N[C@@H](CO)C(=O)N[C@@H](Cc4ccccc4)C(=O)N[C@@H](Cc4ccc(O)cc4)C(=O)N[C@@H](CCCCN)C(=O)N[C@@H](C)C(=O)N[C@@H](CCC(=O)O)C(=O)N[C@@H](CCC(=O)O)C(=O)N[C@@H](CC(C)C)C(=O)O)C(C)C)NC(=O)[C@H](CCCNC(=N)N)NC(=O)[C@H](CC(=O)O)NC(=O)CNC(=O)[C@H]([C@@H](C)O)NC(=O)[C@H](Cc4ccccc4)NC(=O)[C@H](CCC(=O)O)NC(=O)[C@H](CC(N)=O)NC(=O)[C@@H]4CCCN4C3=O)NC(=O)[C@H](CC(C)C)NC(=O)[C@H](Cc3ccc(O)cc3)NC(=O)[C@H](CCCNC(=N)N)NC(=O)[C@H](CO)NC(=O)[C@@H]3CCCN3C(=O)[C@H](CC(N)=O)NC(=O)[C@H](CO)NC(=O)[C@H](CC(C)C)NC(=O)[C@H](CC(=O)O)NC(=O)[C@H](CCCCN)NC(=O)[C@H](C(C)C)NC1=O)C(=O)N[C@@H](C(C)C)C(=O)N[C@@H](CC(N)=O)C(=O)NCC(=O)NCC(=O)N[C@@H](CCC(=O)O)C(=O)N2 [NRG59]	almost have the same effect as NRG
1.439 µg/mL	SHLVKCAEKEKTFCVNGGECFMVKDLSNPSRYLCKCPNEFTGDRCQNYVMASFYKAEELYQ (protein, chains of the parent or of the whole protein) SHLVKCAEKEKTFCVNGGECFMVKDLSNPSRYLCKCPNEFTGDRCQNYVMASFYKAEELYQ	–
0.2772 µg/mL	NRG: full length wild type neuregulin β2 peptide (protein) SHLVKCAEKEKTFCVNGGECFMVKDLSNPSRYLCKCPNEFTGDRCQNYVMASFYKAEELYQ	–
